Assay results as given in EP4656642A1, “ESTROGEN RECEPTOR PROTEOLYSIS TARGETING CHIMERA COMPOUND AND USE THEREOF” (GAN & LEE PHARM CO., LTD, priority 2023, dated 2024).

Key:
Type in all cases: cell-based
ERα [1] = molecular target: T1, ERα (Homo sapiens, UniProt P03372); assay: Degradation of ERα in T-47D cells (immunoblotting, 4 h); set-up: host or cells: T-47D
T1 sequence (P03372 1-595): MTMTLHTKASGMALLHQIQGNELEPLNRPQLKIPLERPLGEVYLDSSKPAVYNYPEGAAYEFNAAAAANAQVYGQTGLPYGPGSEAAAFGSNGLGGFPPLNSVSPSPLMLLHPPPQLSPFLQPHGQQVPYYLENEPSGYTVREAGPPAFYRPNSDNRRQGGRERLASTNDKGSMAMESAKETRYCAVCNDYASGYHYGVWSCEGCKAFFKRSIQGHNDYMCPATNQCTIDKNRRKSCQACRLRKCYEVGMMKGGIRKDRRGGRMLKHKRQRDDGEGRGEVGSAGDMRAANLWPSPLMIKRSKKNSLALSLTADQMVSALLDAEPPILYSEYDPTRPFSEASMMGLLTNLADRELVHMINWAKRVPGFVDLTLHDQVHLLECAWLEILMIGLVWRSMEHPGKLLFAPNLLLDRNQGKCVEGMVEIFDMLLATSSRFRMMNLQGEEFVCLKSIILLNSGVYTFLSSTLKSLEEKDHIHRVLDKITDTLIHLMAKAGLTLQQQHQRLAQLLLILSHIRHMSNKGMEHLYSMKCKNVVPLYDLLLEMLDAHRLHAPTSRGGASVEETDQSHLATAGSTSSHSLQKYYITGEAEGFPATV
Method in brief: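 ERα protein levels were assessed by immunoblot of RIPA lysates (with protease inhibitor) after 4 h exposure at 37°C. Compound was added in DMSO to T-47D cells at final concentrations of 0.15-1000 nM.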

MCF-7 cells = assay: Inhibition of cell proliferation of MCF-7 cells (CCK-8, 9 days); details: treated for 9 days, CCK-8 kit (Table 6)
Method in brief: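 Read-out was CCK-8 viability after 9-day continuous exposure (37°C, 5% CO2) of MCF-7 cells plated at 800/well in 10% FBS DMEM across several compound concentrations. Values are proliferation IC50s.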

ERα [2] = molecular target: T1, ERα; assay: Degradation of ERα in MCF-7 cells (immunoblotting, 4 h)
Method in brief: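 Degradation rate reflects ERα band intensity, corrected to an internal reference protein, relative to control. Values come from Western blotting of lysates from MCF-7 cells exposed 4 h at 37°C to compounds at final concentrations of 0.15-1000nM.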

T-47D cells = assay: Inhibition of cell proliferation in T-47D cells (CCK-8, 6 days); details: 6 days of treatment, Table 3
Method in brief: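 Viability read-out was CCK-8 after 6 days of compound treatment (37 °C, 5% CO2) across graded concentrations. Cells were T-47D seeded at 3,000 per well in 1640 medium plus 10% FBS. IC50 was calculated against proliferation.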

| Compound | Degradation rate (%) of ERα in T-47D cells (ERα [1]; 1nM compound) [%] | Degradation rate (%) of ERα in T-47D cells (ERα [1]; 10nM compound) [%] | IC50 (MCF-7 cells) [nM] | Degradation rate (%) of ERα in MCF-7 cells (ERα [2]; 1nM compound) [%] | Degradation rate (%) of ERα in MCF-7 cells (ERα [2]; 10nM compound) [%] | IC50 (T-47D cells) [nM] |
| --- | --- | --- | --- | --- | --- | --- |
| CCNC(=O)[C@@H]1CC(N2CCC3(CC2)COc2c3ccc3c2CN(C2CCC(=O)NC2=O)C3=O)CCN1C1CC2(CCN(c3ccc([C@@H]4c5ccc(O)cc5CC[C@@H]4c4ccccc4)cc3)CC2)C1 (stereo partly drawn) [H40] | 56 | 86 | 57.9 | 69 | 84 | 1.42 |
| O=C1CCC(N2Cc3c(ccc4c3OCC43CCN(C4CCN(C5CC6(CCN(c7ccc([C@@H]8c9ccc(O)cc9CC[C@@H]8c8ccccc8)cc7)CC6)C5)[C@H](C(=O)NC5CC5)C4)CC3)C2=O)C(=O)N1 (stereo partly drawn) [H41] | 59 | 83 | 5.05 | 63 | 80 | 1.88 |
| O=C1CCC(N2Cc3c(ccc4c3OCC43CCN(C4CCN(C(=O)C5CCN(c6ccc([C@@H]7c8ccc(O)cc8CC[C@@H]7c7ccccc7)cc6)CC5)CC4F)CC3)C2=O)C(=O)N1 (stereo partly drawn) [H42] | 37 | 73 | 9.28 | 49 | 77 | 1.32 |
| O=C1CCC(N2Cc3c(ccc4c3OCC43CCN(C4CCN(C5CC6(CCN(c7ccc([C@@H]8c9ccc(O)cc9CC[C@@H]8c8ccccc8)cc7)CC6)C5)[C@H](C(=O)NC5CCCC5)C4)CC3)C2=O)C(=O)N1 (stereo partly drawn) [H44] | 53 | 85 | 5.06 | 36 | 73 | 3.74 |
| O=C1CCC(N2Cc3c(ccc4c3OCC43CCN(C4CCN(C(=O)C5CCN(c6ccc([C@@H]7c8ccc(O)cc8CC[C@@H]7c7ccccc7)cc6)CC5)[C@H](C(=O)N5CCC5)C4)CC3)C2=O)C(=O)N1 (stereo partly drawn) [H45] | 58 | 78 | 16.2 | 25 | 61 | 1.47 |
| CN(C(=O)CN1CCC2(CC1)COc1c2ccc2c1CN(C1CCC(=O)NC1=O)C2=O)C1CCC2(CC1)CCN(c1ccc([C@@H]3c4ccc(O)cc4CC[C@@H]3c3ccccc3)cc1)CC2 (stereo partly drawn) [H50] | 11 | 63 | 9560 | 32 | 71 | 3.59 |
| C[C@@H]1Cc2c(ccc3[nH]ncc23)C(c2ccc(N3CCC(N4CC[C@@H](N5CCC6(CC5)COc5c6ccc6c5CN(C5CCC(=O)NC5=O)C6=O)[C@@H](F)C4)CC3)cn2)N1CC(F)(F)F (stereo partly drawn) [H57] | 38 | 71 | 7370 | 38 | 60 | 26.9 |
| C[C@@H]1Cc2cc(O)ccc2[C@@H](c2c(F)cc(N3CC4(CCC(N5CCC6(CC5)COc5c6ccc6c5CN(C5CCC(=O)NC5=O)C6=O)CC4)C3)cc2F)N1CC(F)(F)F (stereo partly drawn) [I4] | 41 | 62 | 119 | 39 | 54 | 12.7 |
| O=C1CCC(N2Cc3cc4c(cc3C2=O)OCC42CCN(CC3CCN(c4ccc([C@@H]5c6ccc(O)cc6CC[C@@H]5c5ccccc5)cc4)CC3)CC2)C(=O)N1 (stereo partly drawn) [J1] | -6 | -10 | 857 | 9 | -14 | 16.7 |
| CCN(CC(=O)N1CCC2(CC1)COc1c2ccc2c1CN(C1CCC(=O)NC1=O)C2=O)CC1CCN(c2ccc([C@@H]3c4ccc(O)cc4CC[C@@H]3c3ccccc3)cc2)CC1 (stereo partly drawn) [J12] | 68 | 86 | 1940 | 60 | 53 | 1.1 |
| C[C@@H]1Cc2c(ccc3[nH]ncc23)C(c2ccc(N3CCC4(CCN(C(=O)CN5CCC6(CC5)COc5c6ccc6c5CN(C5CCC(=O)NC5=O)C6=O)CC4)CC3)cn2)N1CC(F)(F)F (stereo partly drawn) [J15] | 49 | 80 | 22000 | 33 | 66 | 3.49 |
| O=C1CCC(N2Cc3c(ccc4c3OCC43CCN(C(=O)CN(CC4CC4)CC4CCN(c5ccc([C@@H]6c7ccc(O)cc7CC[C@@H]6c6ccccc6)cc5)CC4)CC3)C2=O)C(=O)N1 (stereo partly drawn) [J16] | 35 | 68 | 2250 | 17 | 47 | 1.58 |
| O=C1CCC(N2Cc3c(ccc4c3OCC43CCN(CC(=O)N4CC5(CCN(c6ccc([C@@H]7c8ccc(O)cc8CC[C@@H]7c7ccccc7)cc6)CC5)C4)CC3)C2=O)C(=O)N1 (stereo partly drawn) [K5] | 73 | 85 | 132 | 30 | 58 | 1.61 |
| O=C1CCC(N2Cc3c(ccc4c3OCC43CCN(C(=O)C4CCN(C5CCN(c6ccc([C@@H]7c8ccc(O)cc8CC[C@@H]7c7ccccc7)cc6)CC5)CC4)CC3)C2=O)C(=O)N1 (stereo partly drawn) [K7] | 63 | 79 | 10.6 | 55 | 64 | 1.41 |
| O=C1CCC(N2Cc3c(ccc4c3OCC43CCN(C(=O)CN4CC5(CCN(c6ccc([C@@H]7c8ccc(O)cc8CC[C@@H]7c7ccccc7)cc6)CC5)C4)CC3)C2=O)C(=O)N1 (stereo partly drawn) [K8] | 67 | 85 | 10.5 | 44 | 64 | 2.07 |
| O=C1CCC(N2Cc3cc4c(cc3C2=O)OCC42CCN(C3CCC4(CC3)CN(c3ccc([C@@H]5c6ccc(O)cc6CC[C@@H]5c5ccccc5)cc3)C4)CC2)C(=O)N1 (stereo partly drawn) [K17] | 23 | 66 | 70 | 14 | 35 | 1.54 |
| CC1CN(C2CCN(c3ccc([C@@H]4c5ccc(O)cc5CC[C@@H]4c4ccccc4)cc3)CC2)CCC1N1CCC2(CC1)COc1c2ccc2c1CN(C1CCC(=O)NC1=O)C2=O (stereo partly drawn) [K19] | 21 | 56 | 48.6 | 32 | 63 | 5.34 |
| CC1CN(C2CC3(CCN(c4ccc([C@@H]5c6ccc(O)cc6CC[C@@H]5c5ccccc5)cc4)CC3)C2)CCC1N1CCC2(CC1)COc1c2ccc2c1CN(C1CCC(=O)NC1=O)C2=O (stereo partly drawn) [K20] | 4 | 44 | 19.6 | 37 | 70 | 2.59 |
| CC1CN(C(=O)C2CCN(c3ccc(C4c5ccc(O)cc5CCC4c4ccccc4)cc3)CC2)CCC1N1CCC2(CC1)COc1c2ccc2c1CN(C1CCC(=O)NC1=O)C2=O (stereo not drawn) [K23] | 61 | 86 | 5.67 | 57 | 78 | 1.04 |
| O=C1CCC(N2C(=O)c3ccc4c(c3C2=O)OCC42CCN(C(=O)CN3CCC4(CCN(c5ccc([C@@H]6c7ccc(O)cc7CC[C@@H]6c6ccccc6)cc5)CC4)C3)CC2)C(=O)N1 (stereo partly drawn) [K24] | 48 | 72 | 32.5 | 31 | 46 | 1.44 |
